US20190070139A1, “AGENT FOR IMPROVING PHYSICAL FITNESS” (AJINOMOTO CO., INC, priority 2016, published 2019)

Key:
male CD2F1 mice = test: Treadmill running until exhaustion (endurance capacity); format: in vivo, mouse
Description: 6-Week-old male CD2F1 mice (CHARLES RIVER LABORATORIES JAPAN, INC.) were divided into 3 groups of a group with ingestion of a normal diet (AIN-93G composition) and without exercise (non-exercise group), a group with ingestion of a normal diet and with exercise (exercise group), and a group with ingestion of a diet containing 2 wt % cystine (free form), which was prepared by replacing casein in the normal diet with cystine, and with exercise (exercise+2% cystine group). Each group ingested a test diet (normal diet or normal diet containing 2 wt % cystine) for 8 days. Thereafter, the exercise group and the exercise+2% cystine group were made to run on a treadmill until exhaustion for 3 consecutive days, and the running time until then was measured (FIG. 1). […] On the next day after completion of the 3-day running, the muscle of the mice in each group was collected, and the amount of glycogen in the muscle was measured. […] Thereafter, the mice were forced to run until exhaustion under the exercise conditions similar to those in Experimental Example 1, and the running time then was measured. […] The next day, the mice were made to run until exhaustion under the exercise conditions similar to those in Experimental Example 1, and the running time then was measured. The amount of increase in the running time was calculated as an endurance-improving effect. […]

[1] = system: glycogen in gastrocnemius muscle; test: Amount of glycogen in gastrocnemius muscle; format: in vivo, mouse; settings: Experimental Example 1; next day after 3-day continuous exercise; Ex+Cyt (2 wt % cystine diet) vs Ex
Description: 6-Week-old male CD2F1 mice (CHARLES RIVER LABORATORIES JAPAN, INC.) were divided into 3 groups of a group with ingestion of a normal diet (AIN-93G composition) and without exercise (non-exercise group), a group with ingestion of a normal diet and with exercise (exercise group), and a group with ingestion of a diet containing 2 wt % cystine (free form), which was prepared by replacing casein in the normal diet with cystine, and with exercise (exercise+2% cystine group). Each group ingested a test diet (normal diet or normal diet containing 2 wt % cystine) for 8 days. Thereafter, the exercise group and the exercise+2% cystine group were made to run on a treadmill until exhaustion for 3 consecutive days, and the running time until then was measured (FIG. 1). The non-exercise group was fasted and deprived of water during running of the other two groups. On the next day after completion of the 3-day running, the muscle of the mice in each group was collected, and the amount of glycogen in the muscle was measured. The amount of glycogen in muscle was measured as follows. […] Glucose in this solution was detected and quantified using “glucose CII-Test Wako” (manufactured by Wako Pure Chemical Industries, Ltd.). […] The groups with exercise were forced to run in a treadmill until exhaustion for 2 consecutive days and the running time then was measured. […]

For `NC(CSSCC(N)C(=O)O)C(=O)O` (stereo not drawn) [cystine, 3,3′-dithiobis(2-aminopropanoic acid)], the “amount of increase in the running time by exercise” value (male CD2F1 mice; Experimental Example 1, diet containing 2 wt % cystine for 8 days, then running until exhaustion for 3 consecutive days, Ex+Cyt vs Ex (normal diet)) was “significantly (P<0.05 or P<0.01) higher”, the “amount of increase in the running time” value (male CD2F1 mice; Experimental Example 2, 2 wt % cystine diet given for one day after exercise on day 1, day 2 minus day 1, Ex+Cyt vs Ex) was “tended to be higher” and the “amount of glycogen in gastrocnemius muscle” value [1] was “further significantly (P<0.05) increased”.
